Source: BindingDB's records for patent US9796702 (Hoffmann-La Roche, 2017)
pEC50: −log10 of the molar value.

Columns and labels:
[1] = target: T1, Cytochrome P450 11B2, mitochondrial (Homo sapiens, UniProt P19099); experiment: Inhibition Assay
T1 sequence (P19099 whole entry): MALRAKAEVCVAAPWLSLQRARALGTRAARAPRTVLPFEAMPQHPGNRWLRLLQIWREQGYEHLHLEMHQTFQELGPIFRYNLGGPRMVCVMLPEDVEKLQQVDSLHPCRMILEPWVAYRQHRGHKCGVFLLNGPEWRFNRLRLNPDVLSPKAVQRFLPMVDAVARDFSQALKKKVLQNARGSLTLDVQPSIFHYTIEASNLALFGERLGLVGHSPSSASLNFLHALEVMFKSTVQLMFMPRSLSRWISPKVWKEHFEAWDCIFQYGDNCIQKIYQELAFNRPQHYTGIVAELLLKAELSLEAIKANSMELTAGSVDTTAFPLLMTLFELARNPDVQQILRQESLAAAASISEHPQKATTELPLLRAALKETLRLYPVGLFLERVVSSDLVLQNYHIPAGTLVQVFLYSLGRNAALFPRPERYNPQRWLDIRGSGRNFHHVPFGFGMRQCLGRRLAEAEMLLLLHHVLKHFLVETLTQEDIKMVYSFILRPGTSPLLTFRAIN
Text: (§1) The expression plasmids contains the ORF for either human/cyno CYP11B1 or CYP11B2 under the control of a suitable promoter (CMV-promoter) and a suitable resistance marker (neomycin). Using standard techniques the expression plasmid is transfected into G-402 cells and these cells are then selected for expressing the given resistance markers. Individual cell-clones are then selected and assessed for displaying the desired enzymatic activity using 11-Deoxycorticosterone (Cyp11B2) or 11-Deoxycortisol (Cyp11B1) as a substrate.G-402 cells expressing CYP11 constructs were established as described above and maintained in McCoy's 5a Medium Modified, ATCC Catalog No. 30-2007 containing 10% FCS and 400 μg/ml G418 (Geneticin) at 37° C. under an atmosphere of 5% CO2/95% air. Cellular enzyme assays were performed in DMEM/F12 medium containing 2.5% charcoal treated FCS and appropriate concentration of substrate (0.3-10 uM 11-Deoxycorticosterone, 11-Deoxycortisol or Corticosterone). For assaying enzymatic activity, cells were plated onto 96 well plates and incubated for 16 h. An aliquot of the supernatant is then transferred and analyzed for the concentration of the expected product (Aldosterone for CYP11B2; Cortisol for CYP11B1). The concentrations of these steroids can be determined using HTRF assays from CisBio analyzing either Aldosterone or Cortisol.

[2] = target: T2, Cytochrome P450 11B1, mitochondrial (Homo sapiens, UniProt P15538); experiment: Inhibition Assay
T2 sequence (P15538 whole entry): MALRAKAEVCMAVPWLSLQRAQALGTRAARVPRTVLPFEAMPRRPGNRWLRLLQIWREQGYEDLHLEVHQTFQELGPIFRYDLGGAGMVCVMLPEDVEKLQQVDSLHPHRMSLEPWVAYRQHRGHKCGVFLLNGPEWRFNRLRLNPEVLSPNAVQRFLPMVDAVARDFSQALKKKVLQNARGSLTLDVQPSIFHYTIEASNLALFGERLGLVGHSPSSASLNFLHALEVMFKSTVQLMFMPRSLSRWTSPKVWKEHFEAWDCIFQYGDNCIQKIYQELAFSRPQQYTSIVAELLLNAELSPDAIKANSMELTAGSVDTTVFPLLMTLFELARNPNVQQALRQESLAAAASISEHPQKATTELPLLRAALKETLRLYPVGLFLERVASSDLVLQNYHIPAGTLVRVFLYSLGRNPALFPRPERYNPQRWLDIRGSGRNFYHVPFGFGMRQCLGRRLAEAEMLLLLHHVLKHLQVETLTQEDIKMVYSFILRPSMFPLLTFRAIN
Text: as §1

| Compound | pEC50 [1] | pEC50 [2] |
| --- | --- | --- |
| CN1C(=O)CCc2cc(-c3n[nH]cc3CC3CCN(C(=O)c4cnn(C)c4)CC3)ccc21 [US9796702, 17] | 11.15 |  |
| CCS(=O)(=O)N1CCC(Cc2c[nH]nc2-c2ccc3c(c2F)CCC(=O)N3C)CC1 [US9796702, 22] | 11.70 |  |
| CC(=O)N1CCC([C@H](C)c2c[nH]nc2-c2ccc3c(c2F)CCC(=O)N3C)CC1 (single isomer, unassigned) [US9796702, 37] |  | 8.34 |
| CC(=O)N1CCC(C(C)c2c[nH]nc2-c2cc3c(cc2F)N(C)C(=O)CC3)CC1 (racemic) [US9796702, 35] | 11.30 |  |
| CC(=O)N1CCC(C(C)c2c[nH]nc2-c2ccc3c(c2F)CCC(=O)N3C)CC1 (stereo not given) [US9796702, 36] | 11.52 |  |
